Experimental data taken from publication PMC8372404 (Frontiers in Neuroscience, 2021).
Read-outs that look alike come from different tables or passages of the source.

Experiments:
Danio rerio [1] = assay: Social preference test (SPT); assay type: in vivo; details: for SPT. Time spent out of shoaling zone, Median: 5 min session, exp group; for SPT, effect on time spent out of the shoaling zone vs vehicle: most informative dosage, Figure 2D
Description: (§1) Control groups were treated in parallel with vehicle alone. For drug injection, the fish were anesthetized briefly by placing them in 10°C water. The vehicle controls were tested in parallel.
(§2) Behavioral testing was initiated 10 min after drug injection, starting with the novel tank test (NTT), followed immediately thereafter by the light–dark box (LDB) and the social preference test (SPT). The NTT was adapted from [Maximino et al. (2013)] with the behavior video-recorded and the data processed using EthoVision XT14 (Noldus). The distance traveled, speed, number of visits to the bottom, middle and top thirds of the aquarium, respectively, and the times spent in each of these zones during the initial 5 min in the tank were recorded. A decreased time spent at the surface of the NTT apparatus reflects a reduction in exploratory behavior or increased hiding motivation ([Sackerman et al., 2010]). The behavior in the LDB ([Maximino et al., 2011]) and SPT ([Parker et al., 2014]) was video recorded and processed using RealTimer (Open Science LCC, Russia). The fish were added to the center zone of a three-zone aquarium and allowed to adapt for 1–2 min before removal of the septa separating the center from the flanking zones. The time spent and the number of visits to the light and dark flanking zones and the latency to enter the lit zone were recorded during a 5-min session. Stress of fish is associated with increased time spent in the dark compartment (scototaxis) ([Maximino et al., 2011]). For the SPT, the residence time and the number of visits to the three equally sized zones (near the shoal, in the center zone of the aquarium, and near the wall opposite to the shoal) were assessed during a 5-min session. Increased shoal preference (shoaling reflex) is thought to represent a protective response to a predator ([Nguyen et al., 2014]). All behavioral testing was done in the light phase using 500 lux (NTT, LDB) or 200 lux (SPT) illumination.

Danio rerio [2] = assay: Novel tank test (NTT); assay type: in vivo; details: for NTT. Time spent in upper half of tank, Median: 10 min after injection, 5 min; for NTT. Time spent in upper half of tank, Median / NTT. Distance traveled, Median: exp group
Description: as §1, §2

Danio rerio [3] = assay: Light–dark box (LDB); assay type: in vivo; details: for LDB. Time spent in lit compartment, Median: 5 min session, exp group; for LDB, effect on time spent in the lit compartment vs vehicle: most informative dosage, Figure 2C
Description: as §1, §2

[4] = biological target: [3H]-LCGA-17 binding site in rat brain membranes (putative α2δ); assay: [3H]-LCGA-17 radioligand competition binding assay
[5] = competition of [3H]-LCGA-17 (16 nM) binding, rat brain membranes, Table S1
[6] = rat brain membranes, result in words
[7] = competition of [3H]-LCGA-17 binding to rat brain (cortical) membranes, text and Figure 3

Compound: AspLysThrGlu (DKTE; printed: AspLysThrGlu) [LCGA-26]
- SPT. Time spent out of shoaling zone, Median (Danio rerio [1]; 1 mg/kg i.p.): 20 s
- SPT. Time spent out of shoaling zone, Median (Danio rerio [1]; 10 mg/kg): 27 s
- NTT. Time spent in upper half of tank, Median (Danio rerio [2]; 1 mg/kg i.p.): 58 s
- NTT. Distance traveled, Median (Danio rerio [2]; 1 mg/kg i.p.): 1365 cm
- NTT. Time spent in upper half of tank, Median (Danio rerio [2]; 10 mg/kg): 72 s
- NTT. Distance traveled, Median (Danio rerio [2]; 10 mg/kg): 1445 cm
- LDB. Time spent in lit compartment, Median (Danio rerio [3]; 1 mg/kg i.p.): 215 s
- LDB. Time spent in lit compartment, Median (Danio rerio [3]; 10 mg/kg): 243 s

Compound: Cn1ncnc1COc1nn2c(-c3c(F)cccc3F)nnc2cc1C1CCC1 [MK0343]
- IC50 [4, 5]: > 100 µM
- cross-reactivity with / competition at the [3H]-LCGA-17 binding site [4, 6]: distinct

Compound: pregnenolone sulfate [PREGS]
- IC50 [4, 7]: > 100 µM
- cross-reactivity with / competition at the [3H]-LCGA-17 binding site [4, 6]: failed to compete

Compound: TrpAspGlnVal (WDQV; printed: TrpAspGlnVal) [LCGA-59]
- SPT. Time spent out of shoaling zone, Median (Danio rerio [1]; 1 mg/kg i.p.): 52 s
- SPT. Time spent out of shoaling zone, Median (Danio rerio [1]; 10 mg/kg): 88 s
- SPT, effect on time spent out of the shoaling zone vs vehicle (Danio rerio [1]): failed to affect behavior
- NTT. Time spent in upper half of tank, Median (Danio rerio [2]; 1 mg/kg i.p.): 69 s
- NTT. Distance traveled, Median (Danio rerio [2]; 1 mg/kg i.p.): 1730 cm
- NTT. Time spent in upper half of tank, Median (Danio rerio [2]; 10 mg/kg): 74 s
- NTT. Distance traveled, Median (Danio rerio [2]; 10 mg/kg): 1636 cm
- LDB. Time spent in lit compartment, Median (Danio rerio [3]; 1 mg/kg i.p.): 74 s
- LDB. Time spent in lit compartment, Median (Danio rerio [3]; 10 mg/kg): 87 s
- LDB, effect on time spent in the lit compartment vs vehicle (Danio rerio [3]): Neither fluvoxamine (5 mg/kg) nor LCGA-59 and LCGA-83 (10 mg/kg) affected the behavior

Compound: C[C@]12CC[C@@H](O)C[C@H]1CC[C@@H]1[C@@H]2CC[C@]2(C)[C@@H](C(=O)CO)CC[C@@H]12 [THDOC]
- cross-reactivity with / competition at the [3H]-LCGA-17 binding site [4]: distinct
- IC50 [4, 5]: > 100 µM

Compound: NCC1(CC(=O)O)CCCCC1 [Gabapentin]
- IC50 [4, 7]: ~11 µM
- IC50 ([4]; competition of [3H]-LCGA-17 binding to rat brain (cortical) membranes, text and Figure 3, listed as gabapentin): 11 µM

Compound: CCCCCCN(CCCCCC)C(=O)Cc1c(-c2ccc(F)cc2)[nH]c2ccccc12 [FGIN-1-27]
- cross-reactivity with / competition at the [3H]-LCGA-17 binding site [4]: distinct
- IC50 [4, 5]: > 100 µM

Compound: Oc1noc2c1CCNC2 [Gaboxadol (THIP), Gaboxadol]
- IC50 [4]: > 100 µM
- cross-reactivity with / competition at the [3H]-LCGA-17 binding site [4]: distinct

Compound: N[C@@]1(C(=O)O)CC[C@H]2[C@H](C(=O)O)[C@H]21 [LY-354740]
- IC50 [4, 5]: > 100 µM
- cross-reactivity with / competition at the [3H]-LCGA-17 binding site [4, 6]: no cross-reactivity

Compound: CCCN(CCC)C1CCc2ccc(O)cc2C1 (centres unmarked) [7-OH-DPAT]
- cross-reactivity with / competition at the [3H]-LCGA-17 binding site [4]: no cross-reactivity
- IC50 [4, 5]: > 100 µM

Compound: NCc1cc(=O)[nH]o1 [Muscimol]
- cross-reactivity with / competition at the [3H]-LCGA-17 binding site [4]: no cross-reactivity
- IC50 [4, 5]: > 100 µM

Compound: CCN1CCCC1CNC(=O)c1cc(S(N)(=O)=O)ccc1OC (centres unmarked) [Sulpiride]
- IC50 [4, 5]: > 100 µM
- cross-reactivity with / competition at the [3H]-LCGA-17 binding site [4, 6]: no cross-reactivity

Compound: O=C(c1ccc(F)cc1)C1CCN(CCn2c(=O)[nH]c3ccccc3c2=O)CC1 [Ketanserin]
- IC50 [4, 5]: > 100 µM
- cross-reactivity with / competition at the [3H]-LCGA-17 binding site [4, 6]: no cross-reactivity

Compound: Fc1ccc(C(OCCN2CCN(CCCc3ccccc3)CC2)c2ccc(F)cc2)cc1 [GBR-12909]
- IC50 [4, 5]: > 100 µM

Compound: NCC(CC(=O)O)c1ccc(Cl)cc1 (centres unmarked) [Baclofen]
- IC50 [4, 5]: > 100 µM
- cross-reactivity with / competition at the [3H]-LCGA-17 binding site [4, 6]: no cross-reactivity

Compound: CCC(C)N(C)C(=O)c1cc2ccccc2c(-c2ccccc2Cl)n1 (centres unmarked) [PK-11195]
- IC50 [4, 5]: > 100 µM

Compound: COc1ccc(-c2ccc(=N)n(CCCC(=O)O)n2)cc1 [Gabazine]
- IC50 [4, 5]: > 100 µM
- cross-reactivity with / competition at the [3H]-LCGA-17 binding site [4, 6]: no cross-reactivity

Compound: Cn1c2ccc(F)cc2c2c(C(=O)N3CCCC3)cn(-c3ccccc3)c(=O)c21 [SL 651498]
- IC50 [4, 5]: > 100 µM
- cross-reactivity with / competition at the [3H]-LCGA-17 binding site [4, 6]: distinct

Compound: NCCCC(=O)O [GABA, γ-aminobutyric acid]
- cross-reactivity with / competition at the [3H]-LCGA-17 binding site [4, 6]: no cross-reactivity

Compound: O=C(CCCN1CCC(O)(c2ccc(Cl)cc2)CC1)c1ccc(F)cc1 [Haloperidol]
- cross-reactivity with / competition at the [3H]-LCGA-17 binding site [4, 6]: no cross-reactivity

Compound: C[C@@H](CN1CCC(Cc2ccccc2)CC1)[C@@H](O)c1ccc(O)cc1 [Ro-256981]
- IC50 [4, 5]: > 100 µM
- cross-reactivity with / competition at the [3H]-LCGA-17 binding site [4, 6]: no cross-reactivity

Compound: PheLeuProTyr (FLPY; printed: PheLeuProTyr) [LCGA-83]
- SPT. Time spent out of shoaling zone, Median (Danio rerio [1]; 1 mg/kg i.p.): 37 s
- SPT. Time spent out of shoaling zone, Median (Danio rerio [1]; 10 mg/kg): 46 s
- SPT, effect on time spent out of the shoaling zone vs vehicle (Danio rerio [1]): failed to affect behavior
- NTT. Time spent in upper half of tank, Median (Danio rerio [2]; 1 mg/kg i.p.): 73 s
- NTT. Distance traveled, Median (Danio rerio [2]; 1 mg/kg i.p.): 1500 cm
- NTT. Time spent in upper half of tank, Median (Danio rerio [2]; 10 mg/kg): 76 s
- NTT. Distance traveled, Median (Danio rerio [2]; 10 mg/kg): 1589 cm
- LDB. Time spent in lit compartment, Median (Danio rerio [3]; 1 mg/kg i.p.): 128 s
- LDB. Time spent in lit compartment, Median (Danio rerio [3]; 10 mg/kg): 249 s
- LDB, effect on time spent in the lit compartment vs vehicle (Danio rerio [3]): Neither fluvoxamine (5 mg/kg) nor LCGA-59 and LCGA-83 (10 mg/kg) affected the behavior

Compound: O=C(CCCN1CCC2(CC1)C(=O)NCN2c1ccccc1)c1ccc(F)cc1 [Spiperone]
- cross-reactivity with / competition at the [3H]-LCGA-17 binding site [4, 6]: no cross-reactivity

Compound: CC(=O)[C@H]1CC[C@H]2[C@@H]3CC=C4C[C@@H](O)CC[C@]4(C)[C@H]3CC[C@]12C [Pregnenolone]
- IC50 [4, 5]: > 100 µM

Compound: CN1CCC[C@H]1c1cccnc1 [Nicotine]
- IC50 [4]: > 100 µM
- cross-reactivity with / competition at the [3H]-LCGA-17 binding site [4]: no cross-reactivity

Compound: CC(=O)[C@H]1CC[C@H]2[C@@H]3CC[C@H]4C[C@H](O)CC[C@]4(C)[C@H]3CC[C@]12C [Allopregnanolone]
- IC50 [4]: > 100 µM
- cross-reactivity with / competition at the [3H]-LCGA-17 binding site [4]: distinct

Compound: COCCCC/C(=N\OCCN)c1ccc(C(F)(F)F)cc1 [fluvoxamine, Fluvoxamine]
- SPT. Time spent out of shoaling zone, Median (Danio rerio [1]; 5 mg/kg): 90 s
- SPT. Time spent out of shoaling zone, Median (Danio rerio [1]; 10 mg/kg): 84 s
- SPT, effect on time spent out of the shoaling zone vs vehicle (Danio rerio [1]): failed to affect behavior
- NTT. Time spent in upper half of tank, Median (Danio rerio [2]; 5 mg/kg): 41 s
- NTT. Distance traveled, Median (Danio rerio [2]; 5 mg/kg): 1267 cm
- NTT. Time spent in upper half of tank, Median (Danio rerio [2]; 10 mg/kg): 32 s
- NTT. Distance traveled, Median (Danio rerio [2]; 10 mg/kg): 1313 cm
- NTT, effect on time spent in the upper half of the tank vs vehicle (Danio rerio [2]; most informative dosage, Figure 2A: LCGA peptides 10 mg/kg, fluvoxamine 5 mg/kg, diazepam 5 mg/kg): anxiolytic-like effect
- LDB. Time spent in lit compartment, Median (Danio rerio [3]; 5 mg/kg): 118 s
- LDB. Time spent in lit compartment, Median (Danio rerio [3]; 10 mg/kg): 94 s
- LDB, effect on time spent in the lit compartment vs vehicle (Danio rerio [3]): Neither fluvoxamine nor the other LCGA peptides affected the behavior

Compound: O=C(N/N=C/c1ccccc1O)c1ccccc1O [Salicylidene salicylhydrazide]
- cross-reactivity with / competition at the [3H]-LCGA-17 binding site [4]: distinct
- IC50 [4, 5]: > 100 µM

Compound: COc1ccc(-n2nc3c4ccccc4[nH]cc-3c2=O)cc1 [CGS-9895]
- IC50 [4, 5]: > 100 µM
- cross-reactivity with / competition at the [3H]-LCGA-17 binding site [4, 6]: no cross-reactivity

Compound: Cc1ccc(-c2nc3ccc(C)cn3c2CC(=O)N(C)C)cc1 [Zolpidem]
- IC50 [4]: > 100 µM

Compound: O=C(O)C1=CCNCC1 [isoguvacine]
- cross-reactivity with / competition at the [3H]-LCGA-17 binding site [4, 6]: distinct

Compound: NCCCNCCCCNCCCN [Spermine]
- IC50 [4, 5]: > 100 µM
- cross-reactivity with / competition at the [3H]-LCGA-17 binding site [4, 6]: no cross-reactivity

Compound: CC(C)(C)OC(=O)c1ncn2c1[C@@H]1CCCN1C(=O)c1c(Br)cccc1-2 [Bretazenil]
- IC50 [4]: > 100 µM
- cross-reactivity with / competition at the [3H]-LCGA-17 binding site [4]: distinct

Compound: N[C@@H](CCC(=O)O)C(=O)O [Glutamate]
- IC50 [4, 5]: > 100 µM
- cross-reactivity with / competition at the [3H]-LCGA-17 binding site [4, 6]: no cross-reactivity

Compound: NCC(=O)O [Glycine]
- IC50 [4]: > 100 µM
- cross-reactivity with / competition at the [3H]-LCGA-17 binding site [4]: no cross-reactivity

Compound: NC(N)=NCCCCN=C(N)N [Arcaine]
- IC50 [4, 5]: > 100 µM
- cross-reactivity with / competition at the [3H]-LCGA-17 binding site [4, 6]: no cross-reactivity

Compound: CC1(C)CC(=O)c2c(SCCO)sc(-c3nccs3)c2C1 [TB21007]
- IC50 [4, 5]: > 100 µM
- cross-reactivity with / competition at the [3H]-LCGA-17 binding site [4, 6]: distinct

Compound: CC(C(O)c1ccc(O)cc1)N1CCC(Cc2ccccc2)CC1 (centres unmarked) [Ifenprodil]
- IC50 [4, 5]: > 100 µM
